Patent publication US12285440B2, “APOE4 impairs myelination via altered cholesterol biosynthesis and transport in oligodendroglia” (Massachusetts Institute of Technology, priority 2021, dated 2025)

Assays:
Assay type in all cases: cell-based, human
[1] = test system: NGN2-induced neurons; experiment: MEA recording of NGN2-induced neurons exposed to iMGL conditioned media; conditions: 24 hours after exposure to conditioned media from APOE4 iMGL pre-treated with TrC
Experimental: Having induced lipid formation in APOE3 iMGLs, we next attempted to deplete APOE4 iMGLs of lipid droplets to test whether this would alleviate APOE4 phenotypes. We turned to the ACSL1 inhibitor Triacsin C (TrC). […] Since TrC has also been reported to inhibit cholesterol biosynthesis and increase microglial phagocytosis, we decided to test if the extracellular accumulation of cholesterol in APOE4 iMGLs could be reduced by TrC treatment. After 16 hours, DMSO-treated controls or TrC-treated APOE4 iMGLs were washed off the drug treatment and allowed to condition the media for an additional 24 hours. […] NGN2-induced neurons from APOE3 or APOE4 iPS lines were seeded onto MEAs and allowed to mature for 3 weeks before being recorded 24 hours after exposure to conditioned media from APOE3 iMGLs, APOE4 iMGLs, or APOE4 iMGL treated with TrC. […]
Dissociated spheroids or NGN2-induced neurons were plated as a 10 μl droplet in Poly-D-Lysine (Sigma-Aldrich) coated wells of a CytoView MEA 48-well plate (Axion BioSystems; M768-tMEA-48B). […] Spontaneous neural activity was recorded for 30 minutes at a sampling rate of 12.5 kHz and an adaptive threshold set at 5.5 times the standard deviation of baseline noise was used for spike detection. Bursts were detected at each electrode using an inter-spike interval (ISI) threshold set to at least 5 spikes with a maximum ISI of 100 ms. […]

[2] = test system: APOE4 iMGLs; experiment: Purinergic signaling in TrC-treated APOE4 iMGLs; conditions: 1 μM, 16 hours
[3] = test system: APOE4 iMGLs; conditions: 1 μM, 16 hours, vs DMSO-treated control cells
[4] = test system: APOE4 iMGLs; experiment: Cholesterol in media of APOE4 iMGLs via ELISA; conditions: 16 hours treatment, drug washed off, media conditioned 24 hours; vs DMSO-treated controls
Experimental: Having induced lipid formation in APOE3 iMGLs, we next attempted to deplete APOE4 iMGLs of lipid droplets to test whether this would alleviate APOE4 phenotypes. We turned to the ACSL1 inhibitor Triacsin C (TrC). […] Since TrC has also been reported to inhibit cholesterol biosynthesis and increase microglial phagocytosis, we decided to test if the extracellular accumulation of cholesterol in APOE4 iMGLs could be reduced by TrC treatment. After 16 hours, DMSO-treated controls or TrC-treated APOE4 iMGLs were washed off the drug treatment and allowed to condition the media for an additional 24 hours. […] We reasoned that a decrease in extracellular cholesterol accumulation in APOE4 iMGLs cultures treated with TrC was likely to also relieve the suppression of neuronal activity under APOE4 iMGL conditioned media. NGN2-induced neurons from APOE3 or APOE4 iPS lines were seeded onto MEAs and allowed to mature for 3 weeks before being recorded 24 hours after exposure to conditioned media from APOE3 iMGLs, APOE4 iMGLs, or APOE4 iMGL treated with TrC. […]
[…] Measurements were made using an EnSpire plate reader (Perkin Elmer). APOE levels were similarly processed and quantified from iMGL conditioned media using Apolipoprotein E Human ELISA kit (Invitrogen; #EHAPOE).

[5] = test system: APOE3 iMGLs; experiment: qPCR of OA-treated iMGLs; conditions: 20 μM, 16 hours
[6] = test system: APOE3 iMGLs; experiment: Calcium imaging upon ATP uncaging in OA-treated APOE3 iMGLs; conditions: 20 μM, 16 hours, vs untreated APOE3 iMGLs
[7] = test system: APOE3 iMGLs; experiment: Lipid droplet induction in APOE3 iMGLs, BODIPY/IBA1 staining; conditions: 20 μM, 16 hours

| SMILES | neuronal bursts / neural activity on MEA [1] | purinergic signaling [2] | BODIPY-positive lipid droplets [3] | levels of accumulated cholesterol in the media [4] | CD74 expression by qPCR [5] | expression of ACSL1 [5] | calcium transients evoked by ATP uncaging [6] | cell size of iMGLs [7] | intracellular BODIPY-positive lipid droplets ([7]; IBA1-positive cells) |
| --- | --- | --- | --- | --- | --- | --- | --- | --- | --- |
| CCC/C=C/C/C=C/C=C/C=N/NN=O [TrC, Triacsin C] | increased neural activity to the level of neurons treated with APOE3 iMGL media | purinergic signaling was restored after lipid droplet depletion | dramatically reduce BODIPY-positive lipid droplets relative to DMSO-treated control cells | significant decrease in the levels of accumulated cholesterol in the media |  |  |  |  |  |
| CCCCCCCC/C=C\CCCCCCCC(=O)O [OA, oleic acid] |  |  |  |  | upregulation of this gene | significantly induced the expression of ACSL1 | sufficient to blunt calcium transients evoked by ATP uncaging relative to untreated APOE3 iMGLs | decrease in the cell size of iMGLs | accumulated intracellular BODIPY-positive lipid droplets |
